ChEMBL document CHEMBL5042508, “Structures and Biological Activities of Polyacylated ent-Kaurane Diterpenoid Glycosides from the Aerial Parts of Inula hupehensis” (J Nat Prod, 2022)

Tests used:
BV-2 [1] = experiment: Antineuroinflammatory activity against mouse BV-2 cells assessed as inhibition of LPS-induced NO production by Griess assay; type: functional, cell-based
BV-2 [2] = experiment: Cytotoxicity against mouse BV2 cells assessed as reduction in cell viability by MTT assay; type: toxicity, cell-based
[3] = Inhibition of Saccharomyces cerevisiae alpha-glucosidase using pNPG as substrate assessed as release of p-nitrophenol preincubated for 18 mins followed by substrate addition and measured after 30 mins by colorimetric method

SMILES | IC50 (BV-2 [1]) [µM] | IC50 [3] [µM] | Activity (BV-2 [2])
C=C1[C@@H]2CC[C@H]3[C@]4(C)C[C@H](O[C@@H]5O[C@H](COC(C)=O)[C@@H](OC(C)=O)[C@H](O[C@@H]6OC[C@H](O)[C@H](O)[C@H]6O)[C@H]5OC(=O)CC(C)C)C[C@@H](C(=O)O)[C@H]4CC[C@]3(C2)[C@H]1O | 15.6 | – | Non-Toxic
C=C1[C@@H]2CC[C@H]3[C@]4(C)C[C@H](O[C@@H]5O[C@H](CO)[C@@H](O)[C@H](O[C@@H]6OC[C@H](OC(C)=O)[C@H](O)[C@H]6OC(C)=O)[C@H]5OC(=O)CC(C)C)C[C@@H](C(=O)O)[C@H]4CC[C@]3(C2)[C@H]1O | – | 373 | –
C[C@H]1O[C@H](O[C@H]2[C@H](O)[C@@H](O)[C@@H](O[C@H]3[C@H](O)[C@@H](O)C(O)O[C@@H]3CO)O[C@@H]2CO)[C@H](O)[C@@H](O)[C@@H]1N[C@H]1C=C(CO)[C@@H](O)[C@H](O)[C@H]1O (some centres not stated) [ACARBOSE] | – | 388 | –
CNC(=N)NCCC[C@H](N)C(=O)O [TILARGININE] | 31.8 | – | –

Further lines, with some results ahead:

IC50 (BV-2 [1]) [µM] | IC50 [3] [µM] | SMILES | Activity (BV-2 [2])
– | 537 | C=C1[C@@H]2CC[C@H]3[C@]4(C)C[C@H](O[C@@H]5O[C@H](CO)[C@@H](OC(C)=O)[C@H](O[C@@H]6OC[C@H](OC(C)=O)[C@H](O)[C@H]6O)[C@H]5OC(=O)CC(C)C)C[C@@H](C(=O)O)[C@H]4CC[C@]3(C2)[C@H]1O | –
– | 32.8 | C=C1[C@@H]2CC[C@H]3[C@]4(C)C[C@H](O[C@@H]5O[C@H](CO)[C@@H](O)[C@H](OC(C)=O)[C@H]5OC(=O)CC(C)C)CC(C(=O)O)(C(=O)O)[C@H]4CC[C@]3(C2)[C@H]1O | –
